ChEMBL document CHEMBL1201862, “PubChem BioAssay data set” (2004)
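Assay format: 96-well plates, 48-hour exposure. GI50: concentration for 50% inhibition of growth.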 The source made the active and inactive calls. Rule as the data show it: active = GI50 up to about 1.1 µM and inactive = higher.

How the values were obtained:
Assay in all cases: growth of human tumour cells (NCI), 48 h
[1] = system: HCT-116
[2] = system: NCI-H522
[3] = system: Malme-3M
[4] = system: MCF7
[5] = system: HOP-62
[6] = system: K562
[7] = system: SF-295
[8] = system: LOX IMVI
[9] = system: KM-20L2
[10] = system: NCI-H460
[11] = system: KM12
[12] = system: SK-MEL-2
[13] = system: TK-10
[14] = system: EKVX
[15] = system: SR
[16] = system: ACHN

Row | SMILES | GI50 [1] | GI50 [2] | GI50 [3] | GI50 [4] | GI50 [5] | GI50 [6] | GI50 [7] | GI50 [8] | GI50 [9] | GI50 [10] | GI50 [11] | GI50 [12] | GI50 [13] | GI50 [14] | GI50 [15] | GI50 [16]
1 | CCS(=O)(=O)Nc1ccc(Nc2c3ccccc3nc3ccccc23)c(OC)c1 | 1.19 µM (inactive) | 1.2 µM (inactive) | 0.515 µM (active) | 0.0984 µM (active) | 0.067 µM (active) | 0.681 µM (active) | 0.13 µM (active) | 0.275 µM (active) | 1.43 µM (inactive) | < 0.0114 µM (active) | 1.75 µM (inactive) | 5.37 µM (inactive) |  |  |  | 
2 | COc1cccc(/C=C2\CCC(C)(CN(C)C)C2=O)c1 (stereo not given) | 58.2 µM (inactive) | 30.7 µM (inactive) | > 100 µM (inactive) |  | > 100 µM (inactive) | 43.7 µM (inactive) | > 100 µM (inactive) | > 100 µM (inactive) | 23 µM (inactive) | > 100 µM (inactive) | 92.7 µM (inactive) | > 100 µM (inactive) | > 100 µM (inactive) | 46.5 µM (inactive) | 74.3 µM (inactive) | 98.9 µM (inactive)
3 | CCOc1ccccc1NC(=O)CC1Sc2ccccc2NC1=O (stereo not given) | > 100 µM (inactive) | 27.4 µM (inactive) | 52.7 µM (inactive) |  | 73.3 µM (inactive) | 38 µM (inactive) | 43.6 µM (inactive) | > 100 µM (inactive) | 57.7 µM (inactive) | 44.1 µM (inactive) | 38.1 µM (inactive) | 45.8 µM (inactive) | > 100 µM (inactive) | 41.5 µM (inactive) | 21 µM (inactive) | 75.9 µM (inactive)
4 | Cc1cc(/N=N/c2ccc(/N=N/c3c(O)c(S(=O)(=O)O)cc4cc(S(=O)(=O)O)ccc34)cc2C)ccc1/N=N/c1ccc2cc(S(=O)(=O)O)cc(S(=O)(=O)O)c2c1 | > 100 µM (inactive) | > 100 µM (inactive) | > 100 µM (inactive) | > 100 µM (inactive) | > 100 µM (inactive) | > 100 µM (inactive) | > 77.1 µM (inactive) | > 100 µM (inactive) | 54.8 µM (inactive) | > 100 µM (inactive) | > 72.4 µM (inactive) | > 100 µM (inactive) |  | > 100 µM (inactive) |  | 
5 | O=C(CCN(C(=O)O)S(=O)(=O)c1ccc(NC(=O)c2ccccc2)cc1)Nc1ccccc1 | > 56.6 µM (inactive) | > 100 µM (inactive) | > 100 µM (inactive) |  | > 100 µM (inactive) | > 59.3 µM (inactive) | > 100 µM (inactive) | > 57.7 µM (inactive) | > 100 µM (inactive) | > 61.9 µM (inactive) | > 100 µM (inactive) | > 100 µM (inactive) | > 100 µM (inactive) | > 100 µM (inactive) | 15.8 µM (inactive) | > 100 µM (inactive)
6 | CC1=NN2C(c3ccc([N+](=O)[O-])cc3)=CSC2=NC(C)(C)C1 | > 100 µM (inactive) | > 100 µM (inactive) | > 100 µM (inactive) |  | > 100 µM (inactive) | > 100 µM (inactive) | > 100 µM (inactive) | > 100 µM (inactive) | > 100 µM (inactive) | > 100 µM (inactive) | > 100 µM (inactive) | > 100 µM (inactive) | > 100 µM (inactive) | > 100 µM (inactive) | > 100 µM (inactive) | > 100 µM (inactive)
